Laboratory results as given in the CheMixHub viscosity set.
± gives the uncertainty stated by the source.

Assay: xn = mol fraction of the nth substance listed

Nc1cccc(Cl)c1 + Brc1ccccc1
100 kPa
Conditions | viscosity [mPa·s]
313.15 K, x1 = 0.6782 | 2.875 ± 0.1
318.15 K, x1 = 0.0902 | 1.155 ± 0.1

CCC(=O)O + C1CCCCC1
303.15 K, 101 kPa
Conditions | viscosity [mPa·s]
x2 = 0.1973 | 0.8074 ± 0.0096
x2 = 0.286 | 0.771 ± 0.0092
x2 = 0.384 | 0.7319 ± 0.0087
x2 = 0.4987 | 0.7121 ± 0.0085
x2 = 0.5994 | 0.7197 ± 0.0086
x2 = 0.6998 | 0.7155 ± 0.0085
x2 = 0.8991 | 0.7582 ± 0.009

CCC(=O)O + C1CCOC1
298.15 K, 101 kPa
Conditions | viscosity [mPa·s]
x2 = 0.1025 | 1.067 ± 0.009
x2 = 0.2043 | 1.069 ± 0.009
x2 = 0.3057 | 1.033 ± 0.0087
x2 = 0.4065 | 0.9675 ± 0.0082
x2 = 0.5067 | 0.8745 ± 0.0074
x2 = 0.6065 | 0.7835 ± 0.0067
x2 = 0.7056 | 0.6858 ± 0.0059
x2 = 0.8043 | 0.5947 ± 0.0052
x2 = 0.9024 | 0.5179 ± 0.0045

CCC(=O)O + C1COCO1
298.15 K, 101 kPa
Conditions | viscosity [mPa·s]
x2 = 0.1 | 1.018 ± 0.0086
x2 = 0.2 | 1.003 ± 0.0085
x2 = 0.3 | 0.9794 ± 0.0083
x2 = 0.4 | 0.9457 ± 0.008
x2 = 0.5 | 0.9011 ± 0.0076
x2 = 0.6 | 0.8454 ± 0.0072
x2 = 0.7 | 0.788 ± 0.0067
x2 = 0.8 | 0.7223 ± 0.0062
x2 = 0.9 | 0.6544 ± 0.0056

CC12CCC(CC1)C(C)(C)O2 + C=CC(C)(O)CCC=C(C)C
viscosity [mPa·s], 101.33 kPa
Conditions | 298.15 K | 313.15 K
x1 = 0.0536 | 4.296 ± 0.035 | 2.489 ± 0.02
x1 = 0.1357 | 4.062 ± 0.033 | 2.401 ± 0.02
x1 = 0.2205 | 3.835 ± 0.031 | 2.316 ± 0.019
x1 = 0.3081 | 3.614 ± 0.029 | 2.236 ± 0.018
x1 = 0.4288 | 3.347 ± 0.027 | 2.138 ± 0.018
x1 = 0.562 | 3.093 ± 0.025 | 2.048 ± 0.017
x1 = 0.605 | 3.019 ± 0.025 | 2.023 ± 0.017
x1 = 0.6809 | 2.9 ± 0.024 | 1.983 ± 0.016
x1 = 0.8027 | 2.74 ± 0.022 | 1.933 ± 0.016
x1 = 0.8783 | 2.66 ± 0.022 | 1.91 ± 0.016
x1 = 0.9599 | 2.591 ± 0.021 | 1.892 ± 0.016

CCC(=O)O + CC#N
101 kPa
Conditions | viscosity [mPa·s]
298.15 K, x1 = 0.0727 | 0.3871 ± 0.022
298.15 K, x1 = 0.1499 | 0.4326 ± 0.023
298.15 K, x1 = 0.2322 | 0.49 ± 0.024
298.15 K, x1 = 0.3199 | 0.5588 ± 0.025
298.15 K, x1 = 0.4136 | 0.6378 ± 0.026
298.15 K, x1 = 0.5141 | 0.7247 ± 0.027
298.15 K, x1 = 0.6221 | 0.8156 ± 0.029
298.15 K, x1 = 0.7383 | 0.9048 ± 0.031
298.15 K, x1 = 0.864 | 0.9833 ± 0.032
298.35 K, x1 = 0.00118 | 0.3554 ± 0.0076
298.36 K, x1 = 0.000675 | 0.3524 ± 0.0075
298.37 K, x1 = 0.001631 | 0.3536 ± 0.0075
299.33 K, x1 = 0.002851 | 0.3563 ± 0.0076
301.03 K, x1 = 0.00118 | 0.3451 ± 0.0074
301.05 K, x1 = 0.000675 | 0.3437 ± 0.0073
301.96 K, x1 = 0.002851 | 0.3511 ± 0.0075
302.04 K, x1 = 0.001631 | 0.3472 ± 0.0074
303.03 K, x1 = 0.00118 | 0.338 ± 0.0072
303.04 K, x1 = 0.000675 | 0.3378 ± 0.0072
304.04 K, x1 = 0.001631 | 0.3356 ± 0.0072
304.09 K, x1 = 0.002851 | 0.3401 ± 0.0073
305.01 K, x1 = 0.00118 | 0.3316 ± 0.0071
305.04 K, x1 = 0.000675 | 0.3319 ± 0.0071
305.99 K, x1 = 0.002851 | 0.3324 ± 0.0071
306.1 K, x1 = 0.001631 | 0.3288 ± 0.007
308.03 K, x1 = 0.00118 | 0.3228 ± 0.0069
308.04 K, x1 = 0.000675 | 0.3223 ± 0.0069
308.15 K, x1 = 0.0727 | 0.3411 ± 0.022
308.15 K, x1 = 0.1499 | 0.3841 ± 0.022
308.15 K, x1 = 0.2322 | 0.4373 ± 0.023
308.15 K, x1 = 0.3199 | 0.4999 ± 0.024
308.15 K, x1 = 0.4136 | 0.5703 ± 0.025
308.15 K, x1 = 0.5141 | 0.646 ± 0.026
308.15 K, x1 = 0.6221 | 0.7227 ± 0.027
308.15 K, x1 = 0.7383 | 0.7943 ± 0.029
308.15 K, x1 = 0.864 | 0.8513 ± 0.03
309 K, x1 = 0.002851 | 0.3236 ± 0.0069
309.06 K, x1 = 0.001631 | 0.3198 ± 0.0068
311.01 K, x1 = 0.000675 | 0.3134 ± 0.0067
311.01 K, x1 = 0.00118 | 0.3139 ± 0.0067
311.96 K, x1 = 0.002851 | 0.3161 ± 0.0067
312.06 K, x1 = 0.001631 | 0.3112 ± 0.0066
318.15 K, x1 = 0.0727 | 0.3007 ± 0.021
318.15 K, x1 = 0.1499 | 0.345 ± 0.022
318.15 K, x1 = 0.2322 | 0.3948 ± 0.022
318.15 K, x1 = 0.3199 | 0.4493 ± 0.023
318.15 K, x1 = 0.4136 | 0.5074 ± 0.024
318.15 K, x1 = 0.5141 | 0.567 ± 0.025
318.15 K, x1 = 0.6221 | 0.6251 ± 0.026
318.15 K, x1 = 0.7383 | 0.6772 ± 0.027
318.15 K, x1 = 0.864 | 0.7168 ± 0.027
